In general, Tmax refers to the time from dosing to the highest level.

The format of data set [1] is in vivo, healthy volunteers. The settings on record: for change in exposures: with any of the coadministered medications, apart from stated exceptions.
For data set [2] the following is noted: coadministered with the 3D regimen; cited from earlier work.
Data set [3] deals with CYP enzymes, OCT1/OCT2, MATE 1, glucuronidation. The settings on record: cited from earlier work.
The format of data set [4] is in vivo, healthy volunteers. The settings on record: for Tmax: both, human, plasma, oral; for AUC from time zero to time t (AUCt) decrease: data not shown.
Data set [5] in a line: Safety and tolerability assessments in the phase I studies. The format is in vivo, healthy subjects. The following applies: carisoprodol arm.
The conditions of data set [6]: coadministration with ritonavir; cited from earlier work.
Where [7] appears, read: in the presence of the 3D regimen.
Setting [8] is: alone and with the 3D regimen (not affected / similar).
[9] abbreviates: upon coadministration with the 3D regimen.
The mark [10] stands for this setting: coadministration with the 3D regimen.

“And” between values parts separate entries of the source, which are not always exact repeats. Identical values can stand only once. Like-named read-outs stand apart in the source and are kept apart here. A value given as a limit tells only on which side of the number the result lay.

Regarding `COc1c(-c2ccc3cc(NS(C)(=O)=O)ccc3c2)cc(-n2ccc(=O)[nH]c2=O)cc1C(C)(C)CO` [dasabuvir M1], in data set [1] (in the presence of SMZ/TMP, data not shown), the exposures decrease was no more than 19%.

For the molecule `COc1ccc2[nH]c([S+]([O-])Cc3ncc(C)c(OC)c3C)nc2c1` (stereo not shown) [omeprazole], the exposures decrease in data set [2] was ~ 40%.

Turning to `CC(C)c1nc(CN(C)C(=O)N[C@H](C(=O)N[C@@H](Cc2ccccc2)C[C@H](O)[C@H](Cc2ccccc2)NC(=O)OCc2cncs2)C(C)C)cs1` [Ritonavir], in data set [1] (in the presence of SMZ/TMP), the “change in (other) exposure parameters” value is listed as less than 20%. For the same molecule, the change in exposures in data set [1] is no more than 25%.

For the molecule `CC(=O)Nc1ccc(O)cc1` [Acetaminophen], the Metabolic pathway result in data set [3] is recorded as “Glucuronidation”.

`CCCC(C)(COC(N)=O)COC(N)=O` [Meprobamate]: the Tmax in data set [4] is 3 to 4 h. Further, in data set [4] (setting [7]), the “AUC change (increase or decrease)” value is listed as less than 20% and the “Cmax change (increase or decrease)” value is recorded as less than 20%.

Molecule `CN(C)C(=N)N=C(N)N` [Metformin] returned a median tmax in data set [4] (setting [8]) of 4.0 h. In addition, in data set [4] (setting [7]), the Cmax decrease is 23%; the AUC decrease is < 20% and 10%. Besides, the Metabolic pathway entry in data set [3] is “OCT1/OCT2 substrate”.

Turning to `CCCC(C)(COC(N)=O)COC(=O)NC(C)C` (stereo not shown) [Carisoprodol], the Tmax in data set [4] stood at 2 h. Besides, the Cmax decrease in data set [4] (setting [7]) is 46%. Moreover, in data set [4] (setting [9]), the exposures decrease was no more than 46%. The subjects reporting somnolence entry in data set [5] was “five”.

As for `O=C1CN=C(c2ccccc2)c2cc(Cl)ccc2N1` [Nordiazepam], the Tmax was determined as 48 h in data set [4] and 96 h in data set [4] (2 mg). For the same molecule, in data set [4] (setting [7]), the Cmax increase was 10% and < 20%. Besides, the “proportion of AUC extrapolated after the last measurable timepoint” value (“proportion of AUC extrapolated” for short) in data set [4] (with the 3D regimen) is 20%; in data set [4] (without the 3D regimen), 46%. Further, the “AUC from time zero to time t (AUCt) decrease” value in data set [4] (with the 3D regimen) is on record as 3%.

For `COc1c(-c2ccc3cc(NS(C)(=O)=O)ccc3c2)cc(-n2ccc(=O)[nH]c2=O)cc1C(C)(C)C` [Dasabuvir], in data set [1] (in the presence of SMZ/TMP), the AUC increase was 33%, the “change in (other) exposure parameters” value is less than 20% and the exposures increase is no more than 33%. Besides, the change in exposures in data set [1] is given as no more than 25%.

As to `COc1cc(Cc2cnc(N)nc2N)cc(OC)c1OC` [Trimethoprim], in data set [4] (setting [7]), the AUC increase is 22% and the Ctrough increase was determined as 25%. In data set [4] (setting [9]), the “changes in exposures (Cmax and AUC geometric mean ratios)” value was no more than 25%; the exposures increase is listed as no more than 20%. The Metabolic pathway result in data set [3] is “Weak to moderate CYP2C8 inhibitor; weak OCT2 inhibitor; MATE 1 inhibitor”. For the same molecule, the “increase in AUC” value in data set [6] is 20%.

Regarding `Cc1cnc(C(=O)N[C@H]2CCCCC/C=C\[C@@H]3C[C@@]3(C(=O)NS(=O)(=O)C3CC3)NC(=O)[C@@H]3C[C@@H](Oc4nc5ccccc5c5ccccc45)CN3C2=O)cn1` [Paritaprevir], the Tmax in data set [1] (both, human, plasma, oral, median tmax, in the presence of metformin) stood at 5.5 h. For the same molecule, in data set [1] (in the presence of SMZ/TMP), the Cmax decrease was 22% and the “change in (other) exposure parameters” value is reported as less than 20%. Moreover, the change in exposures in data set [1] is listed as no more than 25%. In addition, in data set [1] (with metformin), the Cmax decrease stood at 37% and the Ctrough increase came to 22%.

For the molecule `CN(C)CCC=C1c2ccccc2C=Cc2ccccc21` [Cyclobenzaprine], the median tmax in data set [4] (setting [8]) was 5.0 h. In addition, the Cmax decrease in data set [4] (setting [7]) turned out to be 32%. For the same molecule, the AUC decrease in data set [4] (setting [7]) is given as 40%. Also, the exposures decrease entry in data set [4] (setting [9]) is recorded as “up to 46%”; in data set [4] (upon coadministration with the 3D regimen, listed as cyclobenzaprine), no more than 40%. Moreover, the Metabolic pathway result in data set [3] was “CYP3A4, 1A2, and 2D6 substrate”.

For `COC(=O)N[C@H](C(=O)N1CCC[C@H]1C(=O)Nc1ccc([C@@H]2CC[C@@H](c3ccc(NC(=O)[C@@H]4CCCN4C(=O)[C@@H](NC(=O)OC)C(C)C)cc3)N2c2ccc(C(C)(C)C)cc2)cc1)C(C)C` [Ombitasvir], the “change in (other) exposure parameters” value in data set [1] (in the presence of SMZ/TMP) is listed as less than 20%. In addition, the change in exposures in data set [1] is no more than 25%.

Take `CNCCC=C1c2ccccc2C=Cc2ccccc21` [Norcyclobenzaprine]: in data set [4] (setting [10]), the “harmonic mean t½” value was found to be 53 h and the median tmax amounted to 24 h. For the same molecule, in data set [4] (setting [7]), the “Cmax change (increase or decrease)” value was less than 20% and the AUC decrease is reported as 26%. Moreover, in data set [4] (medication alone), the “harmonic mean t½” value amounted to 86 h and the median tmax came out at 36 h. For the same molecule, in data set [4] (with the 3D regimen), the “proportion of AUC extrapolated” value is recorded as 21% and the “AUC from time zero to time t (AUCt) decrease” value is given as 7%. In addition, the “proportion of AUC extrapolated” value in data set [4] (without the 3D regimen) is 42%.

Turning to `COc1ccc2c3c1O[C@H]1C(=O)CC[C@H]4[C@@H](C2)N(C)CC[C@]314` [Hydrocodone], the Tmax in data set [4] was found to be 2 h. For the same molecule, in data set [4] (setting [7]), the AUC increase is listed as 90% and the Cmax increase was determined as 27%.
